Assay results reported in patent publication US20240158393A1, “PYRIDONE COMPOUNDS AND METHODS OF USE” (Exelixis, Inc., priority 2021, published 2024).

Legend:
Human Mer = molecular target: T1, Human Mer (Homo sapiens, UniProt Q12866); test: Human Mer kinase assay (33P radiometric / HTRF KinEase); assay type: biochemical; conditions: protocols of Examples C-1 and/or C-2
T1 construct: Human Mer (residues R557-E882 with H628Q and R794A, 0.7 nM); purchased Eurofins Pharma Discovery Services UK Limited (KinaseProfiler service)
T1 sequence (Q12866 557-882 limits assumed): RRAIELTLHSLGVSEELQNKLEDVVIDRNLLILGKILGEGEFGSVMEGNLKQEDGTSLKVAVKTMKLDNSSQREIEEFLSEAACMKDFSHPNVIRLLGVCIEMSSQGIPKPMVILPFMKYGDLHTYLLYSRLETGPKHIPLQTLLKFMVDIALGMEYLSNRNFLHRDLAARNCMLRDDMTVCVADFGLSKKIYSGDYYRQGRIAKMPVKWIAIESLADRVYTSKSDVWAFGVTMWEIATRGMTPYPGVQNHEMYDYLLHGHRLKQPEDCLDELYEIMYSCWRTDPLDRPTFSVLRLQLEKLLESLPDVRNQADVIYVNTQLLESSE
How it was run: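 Two formats yield IC50 values. HTRF KinEase used MER residues 528-999 with ATP at Km (40 μM), 1 μM biotin-peptide, 60 min RT, […], 10 concentrations. 33P filter assay used 0.7 nM Mer R557-E882 (H628Q/R794A), 10 μM ATP, 250 μM peptide, 40 min RT, top 1 μM.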

Human Met = molecular target: T2, Human Met (Homo sapiens, UniProt P08581); test: Human Met kinase assay (33P radiometric / HTRF KinEase); assay type: biochemical; conditions: protocols of Examples D-1 and/or D-2; read-out: c-Met IC50
T2 construct: Human MET (residues 956-1390)
T2 sequence (P08581 974-1390 limits assumed): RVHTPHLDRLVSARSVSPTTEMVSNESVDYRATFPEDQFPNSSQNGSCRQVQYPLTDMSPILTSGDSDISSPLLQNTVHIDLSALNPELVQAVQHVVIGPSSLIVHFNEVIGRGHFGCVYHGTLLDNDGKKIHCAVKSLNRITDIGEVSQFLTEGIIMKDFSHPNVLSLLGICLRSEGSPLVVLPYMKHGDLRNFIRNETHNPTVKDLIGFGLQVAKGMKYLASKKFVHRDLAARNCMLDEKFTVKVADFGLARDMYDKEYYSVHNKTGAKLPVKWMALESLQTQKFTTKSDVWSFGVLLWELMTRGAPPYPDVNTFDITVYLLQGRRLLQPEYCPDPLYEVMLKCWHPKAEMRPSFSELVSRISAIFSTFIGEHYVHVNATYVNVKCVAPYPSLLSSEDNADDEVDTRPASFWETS
How it was run: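 Two formats gave IC50s by curve fitting. HTRF KinEase used MET residues 956-1390 with 1 μM biotin-peptide and 3.0 μM ATP (Km) for 40 min at room temperature, ten doses in 3% DMSO, 665/620 nm read. The 33P transfer assay used mutant Met R974-S1390 A1209G/V1290L (3.4 nM), 10 μM ATP, 250 μM peptide, pH 7.0, 40 min, nine doses from 1 μM.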

IC50 (Human Mer)	IC50 (Human Met)	Structure (SMILES)
≤ 0.1 µM	≤ 0.1 µM	C=C(C)n1c(C)cc(C)c(C(=O)Nc2ccc(Oc3ccnc4cc(OC)cnc34)c(F)c2)c1=O [Compound 21, N-[3-Fluoro-4-[(7-methoxy-1,5-naphthyridin-4-yl)oxy]phenyl]-4,6-dimethyl-2-oxo-1-prop-1-en-2-ylpyridine-3-carboxamide]
≤ 0.1 µM	≤ 0.1 µM	COc1cc2nccc(Oc3cc(F)c(NC(=O)c4c(C)nc(C)c(C(C)C)c4O)cc3F)c2nc1OC [Compound 10, N-[4-[(6,7-Dimethoxy-1,5-naphthyridin-4-yl)oxy]-2,5-difluorophenyl]-4-hydroxy-2,6-dimethyl-5-propan-2-ylpyridine-3-carboxamide]
> 0.3 µM	> 0.3 µM	COc1cnc2c(Oc3ccc(NC(=O)c4c(C)nc(C)c(C(N)=O)c4O)cc3F)ccnc2c1 [Compound 91, 3-N-[3-Fluoro-4-[(7-methoxy-1,5-naphthyridin-4-yl)oxy]phenyl]-4-hydroxy-2,6-dimethylpyridine-3,5-dicarboxamide]
≤ 0.1 µM	> 0.3 µM	COc1cc2nccc(Oc3ccc(NC(=O)c4c(C)n(C)c(C)c(/C=C/C(C)(C)C)c4=O)cc3F)c2nc1OC [Compound 49, N-[4-[(6,7-Dimethoxy-1,5-naphthyridin-4-yl)oxy]-3-fluorophenyl]-5-[(E)-3,3-dimethylbut-1-enyl]-1,2,6-trimethyl-4-oxopyridine-3-carboxamide]
≤ 0.1 µM	≤ 0.1 µM	COc1cc2nccc(Oc3ccc(NC(=O)c4cnc(C)c(/C=C/C(C)(C)C)c4O)cc3F)c2cc1OC [Compound 30, N-[4-(6,7-Dimethoxyquinolin-4-yl)oxy-3-fluorophenyl]-5-[(E)-3,3-dimethylbut-1-enyl]-4-hydroxy-6-methylpyridine-3-carboxamide]
≤ 0.1 µM	≤ 0.1 µM	COc1cc2nccc(Oc3ccc(NC(=O)c4c(C)nc(C)c(C(C)C)c4O)cc3F)c2nc1OC [Compound 31, N-[4-[(6,7-Dimethoxy-1,5-naphthyridin-4-yl)oxy]-3-fluorophenyl]-4-hydroxy-2,6-dimethyl-5-propan-2-ylpyridine-3-carboxamide]
≤ 0.1 µM	≤ 0.1 µM	COc1cnc2c(Oc3ccc(NC(=O)c4cnc(C)c(C5=CCCC5)c4O)cc3F)ccnc2c1 [Compound 1-9, 5-(Cyclopenten-1-yl)-N-[3-fluoro-4-[(7-methoxy-1,5-naphthyridin-4-yl)oxy]phenyl]-4-hydroxy-6-methylpyridine-3-carboxamide]
≤ 0.1 µM	≤ 0.1 µM	C=C(C)c1c(C)nc(C)c(C(=O)Nc2cc(F)c(Oc3ccnc4cc(OC)c(OC)nc34)cc2F)c1O [Compound 6, N-[4-[(6,7-Dimethoxy-1,5-naphthyridin-4-yl)oxy]-2,5-difluorophenyl]-4-hydroxy-2,6-dimethyl-5-prop-1-en-2-ylpyridine-3-carboxamide]
> 0.3 µM	> 0.3 µM	COc1cnc2c(Oc3ccc(NC(=O)c4c(C)n(C)c(C)c(C#N)c4=O)cc3F)ccnc2c1 [Compound 81, 5-Cyano-N-[3-fluoro-4-[(7-methoxy-1,5-naphthyridin-4-yl)oxy]phenyl]-1,2,6-trimethyl-4-oxopyridine-3-carboxamide]
≤ 0.1 µM	≤ 0.1 µM	COc1cc2nccc(Oc3ccc(NC(=O)c4cnc(C)c(/C=C/C5CC5)c4O)cc3F)c2nc1OC [Compound 26, 5-[(E)-2-Cyclopropylethenyl]-N-[4-[(6,7-dimethoxy-1,5-naphthyridin-4-yl)oxy]-3-fluorophenyl]-4-hydroxy-6-methylpyridine-3-carboxamide]
≤ 0.1 µM	≤ 0.1 µM	C=C(C)n1c(C)cc(C)c(C(=O)Nc2ccc(Oc3ccnc4cc(OC)c(OC)nc34)c(F)c2)c1=O [Compound 20, N-[4-[(6,7-Dimethoxy-1,5-naphthyridin-4-yl)oxy]-3-fluorophenyl]-4,6-dimethyl-2-oxo-1-prop-1-en-2-ylpyridine-3-carboxamide]
> 0.3 µM	> 0.3 µM	CNC(=O)c1c(C)nc(C)c(C(=O)Nc2ccc(Oc3ccnc4cc(OC)c(OC)nc34)c(F)c2)c1O [Compound 97, 3-N-[4-[(6,7-Dimethoxy-1,5-naphthyridin-4-yl)oxy]-3-fluorophenyl]-4-hydroxy-5-N,2,6-trimethylpyridine-3,5-dicarboxamide]
≤ 0.1 µM	≤ 0.1 µM	COc1cnc2c(Oc3ccc(NC(=O)c4cnc(C)c(C5=CCOCC5)c4O)cc3)ccnc2c1 [Compound 7, 5-(3,6-Dihydro-2H-pyran-4-yl)-4-hydroxy-N-[4-[(7-methoxy-1,5-naphthyridin-4-yl)oxy]phenyl]-6-methylpyridine-3-carboxamide]
≤ 0.1 µM	≤ 0.1 µM	COCCOc1cc2nccc(Oc3ccc(NC(=O)c4cnc(C)c(/C=C/C(C)(C)C)c4O)cc3F)c2nc1OC [Compound 40, 5-[(E)-3,3-Dimethylbut-1-enyl]-N-[3-fluoro-4-[[6-methoxy-7-(2-methoxyethoxy)-1,5-naphthyridin-4-yl]oxy]phenyl]-4-hydroxy-6-methylpyridine-3-carboxamide]
≤ 0.1 µM	≤ 0.1 µM	COc1cc2nccc(Oc3ccc(NC(=O)c4cn(CCF)c(C)c(C5=CCCC5)c4=O)cc3F)c2nc1OC [Compound 11, 5-(Cyclopenten-1-yl)-N-[4-[(6,7-dimethoxy-1,5-naphthyridin-4-yl)oxy]-3-fluorophenyl]-1-(2-fluoroethyl)-6-methyl-4-oxopyridine-3-carboxamide]
≤ 0.1 µM	≤ 0.1 µM	COc1cc2nccc(Oc3ccc(NC(=O)c4cn(C)c(C)c(C5CCCC5)c4=O)cc3F)c2nc1OC [Compound 2, 5-Cyclopentyl-N-[4-[(6,7-dimethoxy-1,5-naphthyridin-4-yl)oxy]-3-fluorophenyl]-1,6-dimethyl-4-oxopyridine-3-carboxamide]
≤ 0.1 µM	≤ 0.1 µM	COc1cc2nccc(Oc3ccc(NC(=O)c4c(C)n(C)c(C)c(N5CCCC5)c4=O)cc3F)c2nc1OC [Compound 89, N-[4-[(6,7-Dimethoxy-1,5-naphthyridin-4-yl)oxy]-3-fluorophenyl]-1,2,6-trimethyl-4-oxo-5-pyrrolidin-1-ylpyridine-3-carboxamide]
≤ 0.1 µM	≤ 0.1 µM	COc1cc2nccc(Oc3ccc(NC(=O)c4cnc(C)c(C5=CCCC5)c4O)cc3)c2cc1OC [Compound 16, 5-(Cyclopenten-1-yl)-N-[4-(6,7-dimethoxyquinolin-4-yl)oxyphenyl]-4-hydroxy-6-methylpyridine-3-carboxamide]
≤ 0.1 µM	≤ 0.1 µM	COc1cc2nccc(Oc3ccc(NC(=O)c4cnc(C)c(C5=CCOCC5)c4O)cc3F)c2nc1OC [Compound 1-3, 5-(3,6-Dihydro-2H-pyran-4-yl)-N-[4-[(6,7-dimethoxy-1,5-naphthyridin-4-yl)oxy]-3-fluorophenyl]-4-hydroxy-6-methylpyridine-3-carboxamide]
≤ 0.1 µM	≤ 0.1 µM	COCCOc1cc2nccc(Oc3ccc(NC(=O)c4c(C)nc(C)c(C5=CCOCC5)c4O)cc3F)c2nc1OC [Compound 43, 5-(3,6-Dihydro-2H-pyran-4-yl)-N-[3-fluoro-4-[[6-methoxy-7-(2-methoxyethoxy)-1,5-naphthyridin-4-yl]oxy]phenyl]-4-hydroxy-2,6-dimethylpyridine-3-carboxamide]
